Laboratory results from US12263139B2, “Use of cannabidiol in the treatment of tuberous sclerosis complex” (Jazz Pharmaceuticals Research UK Limited, priority 2017, dated 2025).

Assays:
[1] = system: AML 621-101 cells; experiment: Matrigel cell invasion assay in AML 621-101 cells; type: cell-based; settings: CBD at both 5 μM and 10 μM
Experimental: (§1) (i) Angiomyolipomas (AML) cells derived from a Tuberous Sclerosis Complex patient (621-101 cell-line), with a known loss of function of TSC2. […] Zeocin™ was purchased from LifeTechnologies (cat no: R25001) and was used to originally generate the stable cell line (by Prof. Lisa Henske) over two weeks of Zeocin™ selection and then for continued maintenance of the cells in tissue culture (at 100 μg/ml).
Tsc2−/− and Tsc2+/+ cell lines were cultured and maintained in DMEM supplemented with 10% (v/v) FBS and 1% (v/v) penicillin-streptomycin in a humidified incubator (5% CO2 at 37° C.). […]
(§2) Transwell permeable supports with 6.5 mm diameter inserts, 8.0 μm pore size, and a polycarbonate membrane were used to perform migration assays. […] Cells were counted using a haemocytometer. […] The percentage of adherent cells was then determined by fixing the cells with methanol and acetone (1:1) for 20 minutes at 20° C. […] Crystal Violet stained cells were eluted with 1% (w/v) SDS and the absorbance was read at 550 nm on a Genova MK3 Lifescience.
For invasion assays, a similar protocol was used; however, the top chamber of the Transwell was filled with […] of BD Matrigel Basement Membrane Matrix (1 mg/mL). […] The number of invaded cells was determined by fixation staining and elution of crystal violet with 1% (w/v) SDS, as before.

[2] = system: pS6 positive cells; experiment: Size of pS6 positive cells in zebrafish model of TSC; type: in vivo
From the text: (§3) A zebrafish model of TSC with a tsc2 gene deletion was used. This model has been previously published and validated (Kim et al. 2011). By mating the gene deletion animals with wild-type tsc2+/+ animals, heterozygote (tsc2+/−) zebrafish were also obtained and tested in this example.
(§4) For both pS6 and TUNEL staining, non-consecutive sections were imaged using a Zeiss AxioImager microscope. Exposure time was kept constant during image acquisition and determined by the observation of a slide where primary antibody or enzyme solution was omitted. Pictures were taken with a 20× objective, using the AxioVision software, and coloured using Fiji ImageJ. All counting and measuring of cells was done in the original black and white pictures.
(§5) Statistical analysis was performed in SPSS (IBM SPSS Statistics 22), except for the chi-square test, which was done using GraphPad Prism 5. Normality and sphericity were tested using the Kolmogorov-Smirnov and Mauchly's tests, respectively. Repeated measures two-way ANOVA tests were used to analyse the locomotor assay data and cell number, while a three-way ANOVA test was used to analyse cell size. Touch response (TR) between genotypes and treatments was analysed by chi-square test. Tests were followed by Tukey or Bonferroni post-hoc tests.

[3] = system: Tsc2−/− MEFs; experiment: Transwell cell migration assay in Tsc2−/− MEFs; type: cell-based, mouse; settings: Tsc2+/+ as control cell; reduction not significant; FIG. 2 (A)
Experimental: (§6) (ii) Tsc2−/− p53−/− and Tsc2+/+p53−/− mouse embryonic fibroblast (MEF) cell lines (now referred to as Tsc2−/− and Tsc2+/+, respectively).
(§7) Tsc2−/− and Tsc2+/+ cell lines were cultured and maintained in DMEM supplemented with 10% (v/v) FBS and 1% (v/v) penicillin-streptomycin in a humidified incubator (5% CO2 at 37° C.). The AML −/− cell lines were cultured and maintained in DMEM supplemented with 15% (v/v) FBS and 1% (v/v) penicillin-streptomycin in a humidified incubator (5% CO2 at 37° C.). For hypoxia, cells were put into a Binder CB150 hypoxic chamber set at 1% 02 for the indicated time points
(§8) The stock concentration of CBD was made to 20 mM in dimethyl sulfoxide (DMSO). CBD was added to culture media to final concentrations of either 5 μM or 10 μM, as indicated). The final concentration of the DMSO in the cell culture medium was at a maximum level of 0.05% (v/v).
as §2, with “assays. Cells were grown in a 75-cm2 flask with standard medium (10% (v/v) FBS) until confluent.” for “assays.”

[4] = system: pS6 positive cells; experiment: Number of pS6 positive cells in zebrafish model of TSC; type: in vivo; settings: for effect on average number of pS6 positive cells: Danieau's incubated
From the text: as §3, §4, §5
To explore mTOR pathway activation in the different genotypes and treatments, immunohistochemistry was performed using a pS6 (Ser235/236) antibody.
To better understand the apparent differences between groups, pS6 positive cells were counted for each genotype and treatment. A significant main effect of genotype was found, with tsc2−/− zebrafish sections showing more pS6 positive cells in the brain than tsc2+/+ and tsc2+/−(+173.3%) (FIG. 4A).

[5] = system: Tsc2−/− MEFs; experiment: Matrigel cell invasion assay in Tsc2−/− MEFs; type: cell-based, mouse
Experimental: as §6, §7, §8
as §2, with “assays. Cells were grown in a 75-cm2 flask with standard medium (10% (v/v) FBS) until confluent.” for “assays.”, “Lifescience. […]” for “Lifescience.”

[6] = system: AML 621-101 cells; experiment: Transwell cell migration assay in AML 621-101 cells; type: cell-based
Experimental: as §1, §7
The stock concentration of CBD was made to 20 mM in dimethyl sulfoxide (DMSO). […]
as §2

[7] = system: Miapaca cells; experiment: MTT cell viability assay in Miapaca; type: cell-based; settings: Homo sapiens, MIA PaCa-2, 72 h, FIG. 6B, read-out: concentration at which 50% growth inhibition was reached
Experimental: MIAPACA is a Homo sapiens pancreas carcinoma. This is a hypotriploid human cell line.
Cell viability was analyzed by the MTT [3-(4,5-dimethylthiazol-2-yl)-2,5-diphenyl tetrazolium bromide] assay. Pancreatic cancer cells were seeded onto each well of a 96-well plate. After 72 h of treatment with CBD, MTT solution 5 mg/ml in PBS was added to each well. The plates were then incubated at 37° C. for an additional 4 h to allow MTT to form formazan crystals by reacting with metabolically active cells. The formazan crystals were solubilized in a 1N isopropanol/HCl 10% solution at 37° C., on a shaking table for 20 min. The absorbance values of the solution in each well were measured at 570 nm using a microplate reader. Cell viability was determined by the formula: cell viability (%)=(absorbance of the treated wells−absorbance of the blank control wells)/(absorbance of the negative control wells−absorbance of the blank control wells)×100%. All MTT experiments were performed in triplicate and repeated at least three times.

C=C(C)[C@@H]1CCC(C)=C[C@H]1c1c(O)cc(CCCCC)cc1O [CBD, Cannabidiol]
cell invasion [1]: significantly block
change in size of pS6 positive cells ([2]; main effect of treatment, compared to Danieau's or DMSO groups, FIG. 5B): −20.1%
effect on size of pS6 positive cells ([2]; tsc2+/+ zebrafish): did not affect cell size
change in size of pS6 positive cells ([2]; tsc2+/− zebrafish, compared to Danieau's, FIG. 5C): −27.6%
change in size of pS6 positive cells ([2]; tsc2+/− zebrafish, compared to the DMSO group, FIG. 5C): −18.1%
change in size of pS6 positive cells ([2]; tsc2−/− zebrafish, compared to Danieau's, FIG. 5C): −23%
change in size of pS6 positive cells ([2]; tsc2−/− zebrafish, compared to the DMSO group, FIG. 5C): −20.8%
cell migration [3]: reduce cell migration to control level
change in average number of pS6 positive cells ([4]; main effect of treatment, compared to DMSO group, FIG. 4B): −77.1%
change in average number of pS6 positive cells ([4]; main effect of treatment, compared to Danieau's group, FIG. 4B): −63.2%
effect on average number of pS6 positive cells ([4]; tsc2+/+ zebrafish): no significant effect
effect on average number of pS6 positive cells ([4]; tsc2+/− zebrafish): no significant effect
change in average number of pS6 positive cells ([4]; tsc2−/− zebrafish, for the DMSO group, FIG. 4C): −58.9%
change in average number of pS6 positive cells ([4]; tsc2−/− zebrafish, for the Danieau's group, FIG. 4C): −55.4%
cell invasion ([5]; 5 μM CBD): restoring invasion to the level of the Tsc2+/+ control cells
cell invasion ([5]; 10 μM CBD): more robust effect
cell migration compared with rapamycin ([6]; 10 μM CBD): reduced cell migration to a significantly greater extent than rapamycin
cell migration ([6]; CBD at both 5 μM and 10 μM): significantly block
IC50 [7]: 15 µM
